Laboratory results published in ChEMBL document CHEMBL3792292, “Development of a potent and selective FLT3 kinase inhibitor by systematic expansion of a non-selective fragment-screening hit” (Bioorg Med Chem Lett, 2016).

How the values were obtained:
[1] = target: T1, Tyrosine-protein kinase ITK/TSK (Homo sapiens) (UniProt Q08881); test: Inhibition of full length human N-terminal GST-tagged ITK (2 to 620 residues) expressed in baculovirus expression system using fluorescence labelled srctide as substrate at 50 times IC50 by electrophoretic mobility shift assay relative to control
T1 sequence (whole entry): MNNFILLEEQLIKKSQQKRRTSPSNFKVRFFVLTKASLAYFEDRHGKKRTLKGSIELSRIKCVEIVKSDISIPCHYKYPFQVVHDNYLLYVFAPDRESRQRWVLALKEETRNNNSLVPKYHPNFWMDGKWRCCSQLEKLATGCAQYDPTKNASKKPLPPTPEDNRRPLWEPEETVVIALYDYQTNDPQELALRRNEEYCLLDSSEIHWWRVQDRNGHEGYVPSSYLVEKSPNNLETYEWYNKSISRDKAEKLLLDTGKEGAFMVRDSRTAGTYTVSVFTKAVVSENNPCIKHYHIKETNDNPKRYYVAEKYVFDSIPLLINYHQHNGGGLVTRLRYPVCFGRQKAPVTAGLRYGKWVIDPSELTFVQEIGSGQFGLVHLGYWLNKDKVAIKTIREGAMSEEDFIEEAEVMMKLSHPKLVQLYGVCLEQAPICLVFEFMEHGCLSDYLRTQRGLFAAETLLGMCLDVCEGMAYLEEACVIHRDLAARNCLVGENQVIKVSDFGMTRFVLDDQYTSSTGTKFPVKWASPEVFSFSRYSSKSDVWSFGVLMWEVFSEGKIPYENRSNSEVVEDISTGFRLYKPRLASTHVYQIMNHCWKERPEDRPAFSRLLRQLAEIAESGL

[2] = target: T2, Inhibitor of nuclear factor kappa-B kinase subunit beta (Homo sapiens) (UniProt O14920); test: Inhibition of human N-terminal His-tagged IKKbeta (1 to 662 residues) expressed in baculovirus expression system using fluorescence labelled modified IKBalpha derived peptide substrate at 50 times IC50 by electrophoretic mobility shift assay relative to control
T2 sequence (whole entry): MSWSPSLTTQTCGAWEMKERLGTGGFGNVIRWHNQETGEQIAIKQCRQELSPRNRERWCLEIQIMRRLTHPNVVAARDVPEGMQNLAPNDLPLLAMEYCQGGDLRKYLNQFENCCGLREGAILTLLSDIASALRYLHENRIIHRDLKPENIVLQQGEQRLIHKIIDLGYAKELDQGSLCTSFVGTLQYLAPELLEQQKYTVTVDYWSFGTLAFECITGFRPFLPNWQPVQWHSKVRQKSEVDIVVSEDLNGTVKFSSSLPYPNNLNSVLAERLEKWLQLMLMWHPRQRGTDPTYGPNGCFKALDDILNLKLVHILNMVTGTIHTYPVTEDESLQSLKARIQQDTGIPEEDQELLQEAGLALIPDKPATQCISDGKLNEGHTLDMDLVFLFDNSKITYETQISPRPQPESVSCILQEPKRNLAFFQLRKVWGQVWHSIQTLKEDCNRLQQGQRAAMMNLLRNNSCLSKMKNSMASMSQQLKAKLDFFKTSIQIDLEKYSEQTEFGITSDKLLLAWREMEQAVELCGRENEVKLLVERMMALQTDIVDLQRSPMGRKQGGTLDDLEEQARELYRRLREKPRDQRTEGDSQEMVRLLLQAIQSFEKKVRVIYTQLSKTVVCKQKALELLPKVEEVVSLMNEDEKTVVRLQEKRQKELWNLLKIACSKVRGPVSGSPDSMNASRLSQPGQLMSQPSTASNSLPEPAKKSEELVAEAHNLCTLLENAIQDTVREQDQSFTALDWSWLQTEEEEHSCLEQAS

[3] = target: High affinity nerve growth factor receptor (Homo sapiens, UniProt P04629); test: Inhibition of human N-terminal GST-tagged TRKA cytoplasmic domain (436 to 790 residues) expressed in baculovirus expression system using fluorescence labelled CSKtide as substrate at 50 times IC50 by electrophoretic mobility shift assay relative to control
Sequence of High affinity nerve growth factor receptor (P04629 33-796 limits assumed): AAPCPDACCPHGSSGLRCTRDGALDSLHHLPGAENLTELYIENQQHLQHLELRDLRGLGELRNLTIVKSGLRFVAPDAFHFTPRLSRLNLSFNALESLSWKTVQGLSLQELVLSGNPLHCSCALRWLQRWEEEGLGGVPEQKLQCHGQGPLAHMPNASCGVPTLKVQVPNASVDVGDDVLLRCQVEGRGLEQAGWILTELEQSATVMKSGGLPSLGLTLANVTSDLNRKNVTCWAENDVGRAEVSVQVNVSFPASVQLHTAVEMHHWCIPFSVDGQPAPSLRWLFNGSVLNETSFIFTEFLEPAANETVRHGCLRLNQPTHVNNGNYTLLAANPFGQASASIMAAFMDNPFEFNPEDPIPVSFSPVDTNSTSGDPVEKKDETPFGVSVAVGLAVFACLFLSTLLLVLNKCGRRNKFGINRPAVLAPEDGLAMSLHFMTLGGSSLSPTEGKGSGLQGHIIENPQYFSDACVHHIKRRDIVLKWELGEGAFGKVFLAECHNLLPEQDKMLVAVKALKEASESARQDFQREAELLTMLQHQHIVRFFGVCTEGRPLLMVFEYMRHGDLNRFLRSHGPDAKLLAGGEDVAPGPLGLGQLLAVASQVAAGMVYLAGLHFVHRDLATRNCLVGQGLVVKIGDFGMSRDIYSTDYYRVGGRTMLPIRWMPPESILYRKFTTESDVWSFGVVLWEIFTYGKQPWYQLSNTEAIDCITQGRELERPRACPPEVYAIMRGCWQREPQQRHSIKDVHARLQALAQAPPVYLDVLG

[4] = target: Death-associated protein kinase 1 (Homo sapiens) (UniProt P53355); test: Inhibition of human N-terminal GST-tagged DAPK1 catalytic domain (1 to 289 residues) expressed in baculovirus expression system using fluorescence labelled DAPK1tide as substrate at 50 times IC50 by electrophoretic mobility shift assay relative to control
Sequence of Death-associated protein kinase 1 (Homo sapiens) (P53355 whole entry, looked up, the tested form may be a part): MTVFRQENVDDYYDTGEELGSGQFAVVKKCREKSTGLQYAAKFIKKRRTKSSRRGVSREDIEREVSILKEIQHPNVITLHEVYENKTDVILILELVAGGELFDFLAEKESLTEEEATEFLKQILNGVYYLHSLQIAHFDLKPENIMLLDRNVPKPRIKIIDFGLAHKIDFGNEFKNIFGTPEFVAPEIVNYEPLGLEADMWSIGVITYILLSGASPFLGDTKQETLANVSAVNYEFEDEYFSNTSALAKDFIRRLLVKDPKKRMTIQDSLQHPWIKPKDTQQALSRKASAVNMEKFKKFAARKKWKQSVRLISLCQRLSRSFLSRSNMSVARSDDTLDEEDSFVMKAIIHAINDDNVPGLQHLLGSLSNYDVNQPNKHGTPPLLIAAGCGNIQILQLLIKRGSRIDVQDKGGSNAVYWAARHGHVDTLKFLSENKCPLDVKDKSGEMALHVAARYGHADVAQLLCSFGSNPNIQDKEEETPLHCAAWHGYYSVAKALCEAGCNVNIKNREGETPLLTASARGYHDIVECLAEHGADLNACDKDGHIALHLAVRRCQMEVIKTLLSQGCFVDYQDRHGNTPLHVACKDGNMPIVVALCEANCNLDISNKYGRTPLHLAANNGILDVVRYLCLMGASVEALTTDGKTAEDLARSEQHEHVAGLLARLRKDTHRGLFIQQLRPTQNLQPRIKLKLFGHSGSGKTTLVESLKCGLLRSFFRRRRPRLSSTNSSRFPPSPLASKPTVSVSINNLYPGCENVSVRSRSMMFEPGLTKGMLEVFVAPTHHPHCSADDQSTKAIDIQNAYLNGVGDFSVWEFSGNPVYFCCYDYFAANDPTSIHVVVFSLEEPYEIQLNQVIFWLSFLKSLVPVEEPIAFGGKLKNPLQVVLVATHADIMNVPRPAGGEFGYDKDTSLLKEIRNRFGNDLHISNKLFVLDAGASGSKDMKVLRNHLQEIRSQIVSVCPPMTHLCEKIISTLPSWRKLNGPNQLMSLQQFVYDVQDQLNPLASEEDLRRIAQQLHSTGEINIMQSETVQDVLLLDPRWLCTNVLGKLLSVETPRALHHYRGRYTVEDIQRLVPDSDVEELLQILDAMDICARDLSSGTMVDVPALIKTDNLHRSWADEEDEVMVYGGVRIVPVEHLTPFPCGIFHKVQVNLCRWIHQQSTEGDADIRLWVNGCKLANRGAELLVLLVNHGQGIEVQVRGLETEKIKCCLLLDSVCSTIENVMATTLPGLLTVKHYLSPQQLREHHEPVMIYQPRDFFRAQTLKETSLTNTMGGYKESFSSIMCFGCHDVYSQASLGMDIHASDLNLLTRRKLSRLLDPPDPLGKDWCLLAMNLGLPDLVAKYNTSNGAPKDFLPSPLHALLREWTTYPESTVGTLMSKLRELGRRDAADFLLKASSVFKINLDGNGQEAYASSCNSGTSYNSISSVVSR

[5] = target: MAP kinase-activated protein kinase 2 (Homo sapiens) (UniProt P49137); test: Inhibition of full length human N-terminal GST-tagged MAPKAPK2 (1 to 400 residues) expressed in baculovirus expression system coexpressing human His-tagged p38beta (1 to 364 residues)/MAP2K6 (1 to 334 residues) using fluorescence labelled GS peptide substrate at 50 times IC50 by electrophoretic mobility shift assay relative to control
Sequence of MAP kinase-activated protein kinase 2 (Homo sapiens) (P49137 whole entry, looked up, the tested form may be a part): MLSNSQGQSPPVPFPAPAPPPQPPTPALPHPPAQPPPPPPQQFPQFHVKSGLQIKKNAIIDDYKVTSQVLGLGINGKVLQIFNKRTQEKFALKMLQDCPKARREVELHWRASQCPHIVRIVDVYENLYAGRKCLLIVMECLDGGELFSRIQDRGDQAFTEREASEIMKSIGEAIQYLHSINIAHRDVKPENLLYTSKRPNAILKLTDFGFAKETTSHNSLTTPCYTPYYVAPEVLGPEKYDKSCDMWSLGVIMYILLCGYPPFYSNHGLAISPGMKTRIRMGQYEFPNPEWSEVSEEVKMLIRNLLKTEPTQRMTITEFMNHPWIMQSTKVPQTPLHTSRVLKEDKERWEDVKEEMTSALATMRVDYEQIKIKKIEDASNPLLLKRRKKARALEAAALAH

[6] = target: T3, Serine/threonine-protein kinase 4 (Homo sapiens) (UniProt Q13043); test: Inhibition of full length human N-terminal GST-tagged MST1 (1 to 487 residues) expressed in baculovirus expression system using fluorescence labelled IRS1 as substrate at 50 times IC50 by electrophoretic mobility shift assay relative to control
T3 sequence (whole entry): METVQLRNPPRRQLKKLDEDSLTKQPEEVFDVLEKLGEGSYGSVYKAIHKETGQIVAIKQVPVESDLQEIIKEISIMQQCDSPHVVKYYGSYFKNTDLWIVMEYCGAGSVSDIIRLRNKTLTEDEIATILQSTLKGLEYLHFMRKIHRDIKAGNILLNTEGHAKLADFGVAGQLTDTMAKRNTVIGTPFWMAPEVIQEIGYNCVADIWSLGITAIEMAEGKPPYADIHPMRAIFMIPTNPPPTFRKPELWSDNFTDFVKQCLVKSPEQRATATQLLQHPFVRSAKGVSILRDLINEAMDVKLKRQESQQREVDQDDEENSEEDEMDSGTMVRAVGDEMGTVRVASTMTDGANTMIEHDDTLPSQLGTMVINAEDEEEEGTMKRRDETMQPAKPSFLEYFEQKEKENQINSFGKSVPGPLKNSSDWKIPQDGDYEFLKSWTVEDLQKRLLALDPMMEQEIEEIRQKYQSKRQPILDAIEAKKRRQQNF

[7] = target: T4, Interleukin-1 receptor-associated kinase 4 (Homo sapiens) (UniProt Q9NWZ3); test: Inhibition of full length human N-terminal GST-tagged IRAK4 (1 to 460 residues) expressed in baculovirus expression system using fluorescence labelled IRAK1 peptide substrate at 50 times IC50 by electrophoretic mobility shift assay relative to control
T4 sequence (whole entry): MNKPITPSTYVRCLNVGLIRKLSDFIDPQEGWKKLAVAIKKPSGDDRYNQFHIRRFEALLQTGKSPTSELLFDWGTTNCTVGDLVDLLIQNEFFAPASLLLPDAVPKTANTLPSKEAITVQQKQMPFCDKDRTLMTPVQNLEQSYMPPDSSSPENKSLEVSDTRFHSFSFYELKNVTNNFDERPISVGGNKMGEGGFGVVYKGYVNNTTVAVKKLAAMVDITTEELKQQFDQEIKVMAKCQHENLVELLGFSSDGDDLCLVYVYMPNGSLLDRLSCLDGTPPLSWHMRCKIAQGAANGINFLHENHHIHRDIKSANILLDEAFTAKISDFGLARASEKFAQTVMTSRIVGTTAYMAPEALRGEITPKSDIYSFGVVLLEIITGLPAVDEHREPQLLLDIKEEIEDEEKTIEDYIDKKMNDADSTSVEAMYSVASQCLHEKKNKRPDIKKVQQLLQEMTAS

SMILES	inhibition [1] [%]	inhibition [2] [%]	inhibition [3] [%]	inhibition [4] [%]	inhibition [5] [%]	inhibition [6] [%]	inhibition [7] [%]
O=C(Nc1ccccc1)c1n[nH]c2ccccc12	79.7	0.7	95	32.9	5.1	31.9	19.7
O=C(Nc1ccc(C(=O)N2CCN(c3ccccc3)CC2)cc1)c1n[nH]c2ccccc12	50.8	1.3	90.1	13	-7.5	16.8	2.6
O=C(Nc1ccc(CN2CCN(c3ccccc3)CC2)cc1)c1n[nH]c2ccccc12	37.4	0.6	80.5	8.3	9.7	32.6	-1.9
